Test results published in patent publication US9630977B2, “Cephalosporin derivatives and pharmaceutical compositions thereof” (Legochem Biosciences, Inc., priority 2011, dated 2017).
Values after ≈ are worked out from the molar mass of the structure shown. Read-outs that look alike come from different tables or passages of the source.

Assays:
A. baumannii 46 = experiment: In vitro antibacterial activity test (broth microdilution); assay type: cell-based; settings: Acinetobacter baumannii; A. baumannii 46; read-out: MIC90
Procedure, shortened: (§1)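 Values: MIC90, ug/mL. Method: CLSI broth microdilution on clinical isolates, compounds at final 0.0626 to 128 ug/mL.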

A. baumannii 49 = experiment: as above; assay type: cell-based; settings: Acinetobacter baumannii; A. baumannii 49; read-out: MIC90
Procedure, shortened: as §1

A. baumannii 52 = experiment: as above; assay type: cell-based; settings: Acinetobacter baumannii; A. baumannii 52; read-out: MIC90
Procedure, shortened: as §1

[1] = tested on: A. calcoaceticus ATCC15473; experiment: as above; assay type: cell-based; settings: Acinetobacter calcoaceticus; A. calcoaceticus ATCC15473; read-out: MIC90
Procedure, shortened: as §1

E. cloacae β19 = experiment: as above; assay type: cell-based
Procedure, shortened: as §1

E. coli AG100 = experiment: as above; assay type: cell-based; settings: Escherichia coli, AG100, E. coli AG100; read-out: MIC90
Procedure, shortened: as §1

E. coli β4 = experiment: as above; assay type: cell-based; settings: Escherichia coli, read-out: MIC90
Procedure, shortened: as §1

K. pneumoniae 2011E = experiment: as above; assay type: cell-based; settings: Klebsiella pneumoniae, 2011E, K. pneumoniae 2011E; read-out: MIC90
Procedure, shortened: as §1

K. pneumoniae β10 = experiment: as above; assay type: cell-based; settings: Klebsiella pneumoniae; K. pneumoniae β10; read-out: MIC90
Procedure, shortened: as §1

K. pneumoniae β11 = experiment: as above; assay type: cell-based; settings: Klebsiella pneumoniae; K. pneumoniae β11; read-out: MIC90
Procedure, shortened: as §1

K. pneumoniae β13 = experiment: as above; assay type: cell-based; settings: K. pneumoniae β13
Procedure, shortened: as §1

K. pneumoniae β14 = experiment: as above; assay type: cell-based; settings: Klebsiella pneumoniae, read-out: MIC90
Procedure, shortened: as §1

K. pneumoniae β9 = experiment: as above; assay type: cell-based; settings: Klebsiella pneumoniae, K. pneumoniae β9; read-out: MIC90
Procedure, shortened: as §1

M. catarrhalis 2524 = experiment: as above; assay type: cell-based; settings: M. catarrhalis 2524
Procedure, shortened: as §1

P. aeruginosa 1912E = experiment: as above; assay type: cell-based
Procedure, shortened: as §1

P. aeruginosa 37 = experiment: as above; assay type: cell-based; settings: Pseudomonas aeruginosa, 37, P. aeruginosa 37; read-out: MIC90
Procedure, shortened: as §1

P. aeruginosa 40 = experiment: as above; assay type: cell-based; settings: Pseudomonas aeruginosa, 40, P. aeruginosa 40; read-out: MIC90
Procedure, shortened: as §1

P. aeruginosa 43 = experiment: as above; assay type: cell-based; settings: Pseudomonas aeruginosa; P. aeruginosa 43; read-out: MIC90
Procedure, shortened: as §1

P. aeruginosa 6065Y = experiment: as above; assay type: cell-based
Procedure, shortened: as §1

[2] = tested on: A. baumannii (6 clinical isolates); experiment: Antibacterial activity on representative drug-resistance bacteria: number of clinical isolates per MIC value; assay type: cell-based; settings: A. baumanni (N = 6)
Experimental: (§2) The in vitro antibacterial activity was evaluated by measuring MIC90 (ug/mL) of each of the compounds of Examples 1 to 68, which is defined as the lowest concentration of an antibiotic that will inhibit the visible growth of 90% of microorganisms after incubation as compared with a control group to which the antibiotic is not treated. MIC90 values were measured by the broth microdilution method developed by the Clinical and Laboratory Standards Institute (CLSI) (see CLSI M7-A5, Methods for Dilution Antimicrobial Susceptibility Test for Bacteria that Grow Aerobically-Fifth Edition (2000): CLSI, Villanova, Pa.).
(§3) Test compounds each (the cephalosporin derivative compounds prepared in Examples 1 to 68) were dissolved in DMSO at the concentration of 10,240 ug/mL, were diluted by two fold with DMSO, and then were diluted by twenty fold with sterilized distilled water. The final concentration in the antibacterial activity test was in the range of […] to 128 ug/mL, and the final concentration of DMSO used as an adjuvant was 2.5% (V/V).

[3] = tested on: K. pneumoniae (38 clinical isolates); experiment: as above; assay type: cell-based; settings: K. pneumomiae (N = 38)
Experimental: as §2, §3

[4] = tested on: P. aeruginosa (16 clinical isolates); experiment: as above; assay type: cell-based; settings: P. aeruginosa (N = 16)
Experimental: as §2, §3

[5] = Pharmacokinetics study in rat, IV; assay type: in vivo, SD rat; settings: Rat (10 mg/kg) single IV; for AUC / Cmax / Tmax / clearance / half-life / Vd: SD, plasma; for Vd: read-out: Vss
Experimental: Test animals: 9 week old SD rat, weight 290˜310 g; 3 rats/sample time point
Lab conditions: Temperature of 21±2° C.; humidity of 50±20%
Administration method: Injecting test compound solution through tail vein (IV)
Test method: Blood samples were taken from jugular vein at a predetermined time period for 24 hours after administration, plasma was separated, and quantified by using LC-MS/MS.

19 clinical isolates = experiment: In vitro antibacterial activity test, panel of 19 clinical isolates as a whole; assay type: cell-based; settings: effect of a siderophore group, Table 1
Experimental: To evaluate antibacterial activity of each of the compounds of Examples 1 to 68, in vitro antibacterial activity test was performed.
as §2
In vitro antibacterial activity was measured with respect to the following 19 clinical isolates: M. catarrhalis; P. aeruginosa (5 strains); K. pneumoniae (6 strains); A. baumannii (3 strains); E. coli (2 strains); A. calcoaceticus; and E. cloacae.
as §3

With `C[C@H](O/N=C(\C(=O)N[C@@H]1C(=O)N2C(C(=O)[O-])=C(C[n+]3cnc(N)c(NCCNC(=O)c4cc(=O)c(O)cn4O)c3)CSC12)c1nc(N)sc1Cl)C(=O)O` (stereo partly shown) [Compound 4] the MIC90 (A. baumannii 46) was 64 µg/mL (≈ 80.6 µM), the MIC90 (A. baumannii 49) was 8 µg/mL (≈ 10.1 µM) and the MIC90 (A. baumannii 52) was 4 µg/mL (≈ 5.04 µM). The MIC90 [1] was 2 µg/mL (≈ 2.52 µM), the MIC90 (E. cloacae β19; Enterobacter cloacae, read-out: MIC90) was 1 µg/mL (≈ 1.26 µM) and the MIC90 (E. coli AG100) was 0.125 µg/mL (≈ 0.157 µM). The MIC90 (E. coli β4) was 0.5 µg/mL (≈ 0.63 µM), the MIC90 (K. pneumoniae 2011E) was 2 µg/mL (≈ 2.52 µM) and the MIC90 (K. pneumoniae β10) was 0.5 µg/mL (≈ 0.63 µM). For the same molecule, the MIC90 (K. pneumoniae β11) was 4 µg/mL (≈ 5.04 µM), the MIC90 (K. pneumoniae β13; Klebsiella pneumoniae, read-out: MIC90) was 1 µg/mL (≈ 1.26 µM) and the MIC90 (K. pneumoniae β14) was 32 µg/mL (≈ 40.3 µM). It also gave an MIC90 (K. pneumoniae β9) of 0.5 µg/mL (≈ 0.63 µM), an MIC90 (M. catarrhalis 2524; Moraxella catarrhalis, read-out: MIC90) of 0.25 µg/mL (≈ 0.315 µM) and an MIC90 (P. aeruginosa 1912E; Pseudomonas aeruginosa, 1912E, read-out: MIC90) of 0.5 µg/mL (≈ 0.63 µM). The MIC90 (P. aeruginosa 37) was 0.5 µg/mL (≈ 0.63 µM), the MIC90 (P. aeruginosa 40) was 1 µg/mL (≈ 1.26 µM) and the MIC90 (P. aeruginosa 43) was 1 µg/mL (≈ 1.26 µM). The MIC90 (P. aeruginosa 6065Y; Pseudomonas aeruginosa, read-out: MIC90) was 0.5 µg/mL (≈ 0.63 µM), the “number of clinical isolates that showed the respective MIC value” (“number” for short) ([2]; MIC 0.125 ug/mL) was 1 and the “number” value ([2]; MIC 2 ug/mL) was 2. For the same molecule, the “number” value ([2]; MIC >16 ug/mL) was 3, the “number” value ([3]; MIC 0.25 ug/mL) was 1 and the “number” value ([3]; MIC 1 ug/mL) was 1. The “number” value ([3]; MIC 2 ug/mL) was 3, the “number” value ([3]; MIC 4 ug/mL) was 2 and the “number” value ([3]; MIC 8 ug/mL) was 3. For the same molecule, the “number” value ([3]; MIC 16 ug/mL) was 2, the “number” value ([3]; MIC >16 ug/mL) was 26 and the “number” value ([4]; MIC 0.0625 ug/mL) was 1. The “number” value ([4]; MIC 0.25 ug/mL) was 5, the “number” value ([4]; MIC 0.5 ug/mL) was 2 and the “number” value ([4]; MIC 1 ug/mL) was 1. The “number” value ([4]; MIC 2 ug/mL) was 2, the “number” value ([4]; MIC 4 ug/mL) was 1 and the “number” value ([4]; MIC 8 ug/mL) was 1. For the same molecule, the “number” value ([4]; MIC >16 ug/mL) was 3, the AUCnorm [5] was 4.03 kg·h/L and the “Cmax,norm” value [5] was 7.58 kg/L. The AUC [5] was 40300 ng·h/mL, the Cmax [5] was 75.8 µg/mL and the Tmax [5] was 1.2 min. The clearance [5] was 4.17 mL/min/kg, the half-life [5] was 37.2 min and the Vd [5] was 0.2 L/kg. The “antibacterial activity (in words)” value (19 clinical isolates) was “significantly improved”.

For `CC(C)(O/N=C(\C(=O)N[C@@H]1C(=O)N2C(C(=O)[O-])=C(/C=C/C[n+]3cnc(N)c(NCCNC(=O)c4cc(=O)c(O)cn4O)c3)CSC12)c1csc(N)n1)C(=O)O` (stereo partly shown) [Compound 8], the MIC90 (A. baumannii 46) was 8 µg/mL (≈ 10 µM), the MIC90 (A. baumannii 49) was greater than 128 µg/mL and the MIC90 (A. baumannii 52) was greater than 128 µg/mL. For the same molecule, the MIC90 [1] was 2 µg/mL (≈ 2.5 µM), the MIC90 (E. cloacae β19) was 32 µg/mL (≈ 40 µM) and the MIC90 (E. coli AG100) was 0.0625 µg/mL (≈ 0.0781 µM). It also gave an MIC90 (E. coli β4) of 0.5 µg/mL (≈ 0.625 µM), an MIC90 (K. pneumoniae 2011E) of 1 µg/mL (≈ 1.25 µM) and an MIC90 (K. pneumoniae β10) of less than 0.0625 µg/mL. It also gave an MIC90 (K. pneumoniae β11) of 32 µg/mL (≈ 40 µM), an MIC90 (K. pneumoniae β13) of 0.25 µg/mL (≈ 0.313 µM) and an MIC90 (K. pneumoniae β14) of 8 µg/mL (≈ 10 µM). For the same molecule, the MIC90 (K. pneumoniae β9) was 0.5 µg/mL (≈ 0.625 µM), the MIC90 (M. catarrhalis 2524) was 0.5 µg/mL (≈ 0.625 µM) and the MIC90 (P. aeruginosa 1912E) was 1 µg/mL (≈ 1.25 µM). It also gave an MIC90 (P. aeruginosa 37) of 1 µg/mL (≈ 1.25 µM), an MIC90 (P. aeruginosa 40) of 0.5 µg/mL (≈ 0.625 µM) and an MIC90 (P. aeruginosa 43) of 1 µg/mL (≈ 1.25 µM). The MIC90 (P. aeruginosa 6065Y) was 4 µg/mL (≈ 5 µM), the “number” value ([2]; MIC 0.5 ug/mL) was 1 and the “number” value ([2]; MIC >16 ug/mL) was 5. For the same molecule, the “number” value ([3]; MIC 0.25 ug/mL) was 1, the “number” value ([3]; MIC 8 ug/mL) was 1 and the “number” value ([3]; MIC <0.0625 ug/mL) was 1. The “number” value ([3]; MIC >16 ug/mL) was 35, the “number” value ([4]; MIC 0.125 ug/mL) was 2 and the “number” value ([4]; MIC 0.25 ug/mL) was 1. For the same molecule, the “number” value ([4]; MIC 0.5 ug/mL) was 2, the “number” value ([4]; MIC 1 ug/mL) was 2 and the “number” value ([4]; MIC 2 ug/mL) was 2. The “number” value ([4]; MIC 4 ug/mL) was 3, the “number” value ([4]; MIC 8 ug/mL) was 1 and the “number” value ([4]; MIC >16 ug/mL) was 3. The AUCnorm [5] was 5.46 kg·h/L, the “Cmax,norm” value [5] was 19.61 kg/L and the AUC [5] was 54600 ng·h/mL. For the same molecule, the Cmax [5] was 196 µg/mL, the Tmax [5] was 1.2 min and the clearance [5] was 3 mL/min/kg. For the same molecule, the half-life [5] was 52.2 min, the Vd [5] was 0.09 L/kg and the “antibacterial activity (in words)” value (19 clinical isolates) was “significantly improved”.
